The values that follow come from paper PMC4922569, “Antifibrotic Effects of the Dual CCR2/CCR5 Antagonist Cenicriviroc in Animal Models of Liver and Kidney Fibrosis” (PLoS ONE, 2016).

Assay [1] has as its system monocyte/macrophage recruitment. Nature of the assay: Thioglycollate (TG)-induced mouse model of peritonitis: peritoneal lavage monocyte/macrophage counts. It counts as in vivo. To be noted: dexamethasone 1 mg/kg QD PO Days 1-5; 48 h post-TG. As to the method:
A murine thioglycollate (TG)-induced model of peritonitis, where acute inflammation induced by intraperitoneal (IP) injection of TG results in a rapid increase in monocyte/macrophage migration into the peritoneal cavity, was employed to assess the effects of CVC on cell recruitment in vivo. The protocol was approved by the IACUC of Charles River Laboratories Preclinical Services, Montreal (PCS-MTL). The care and use of animals was conducted in accordance with the guidelines of the US National Research Council and the Canadian Council on Animal Care.
Male C57BL/6 mice (n = 44; 8–10 weeks of age; Charles River Laboratories, Canada) were allocated to receive treatments via oral gavage (PO) on Days 1–5 in the following groups: non-disease control, vehicle control twice daily (BID), CVC 5 mg/kg/day (CVC5) BID, CVC 20 mg/kg/day (CVC20) BID, CVC 100 mg/kg/day (CVC100) BID, CVC20 QD, and positive control dexamethasone (corticosteroid known to reduce inflammation in a variety of animal models) 1 mg/kg QD (S1 Table). On Day 4, peritonitis was induced via IP injection of TG 3.85% (1 mL/animal) 2 hours post-dose in all groups except non-disease controls. Study endpoints included: peritoneal lavage cell counts and pharmacokinetic (PK) evaluation. Animals were sacrificed 48 hours post-TG injection by isoflurane inhalation, and peritoneal lavage and blood samples (0.7 mL) were collected. Differential cell counts were assessed in peritoneal lavage samples using an Advia® Hematology System (Siemens Healthcare Diagnostics, USA) with multispecies software and an analysis software designed for mouse peritoneal fluid on Advia® 120 (LabThruPut, USA). A 0.3 mL aliquot of the blood sample was processed to plasma for PK analysis.
(§1) In the peritonitis mouse model, one-way analysis of variance with post-hoc Dunnett’s test was performed, using GraphPad Prism® (GraphPad Software, Inc., USA), on differential cell counts obtained from lavage in treatment groups versus the vehicle-control group. For the ex vivo migration of mouse monocytes, statistical significance was determined by a Student’s t test.

Assay [2] has as its system CCL2-mediated chemotaxis of activated murine macrophages (F4/80+/CD11b+). The experiment in a line: Ex vivo CCL2-induced chemotaxis of activated mouse macrophages (Transwell). The assay is classed as cell-based. To be noted: CCL2-stimulated cells (1 nM CCL2), no CVC, 2 hours. The procedure:
Mouse monocyte migration in response to CVC treatment was assessed ex vivo in triplicate. TG was injected intraperitoneally into male C57BL/6 mice (n = 3; 8–10 weeks of age; Jackson Laboratory, USA) and activated macrophages were collected 48 hours later by peritoneal lavage. Chemotaxis was assayed using a Transwell® Chamber (Costar, USA) with a 5 μm-pore size polycarbonate filter, as previously described. Briefly, cells were incubated for 2 hours in the presence of 1 nM CCL2 and/or 1 μM CVC (dissolved in dimethyl sulfoxide with 0.5% acetic acid and diluted 1:1000 with serum-free Roswell Park Memorial Institute-1640 medium and 0.5% bovine serum albumin). Cells were harvested from the lower compartment and analyzed by flow cytometry to enumerate F4/80^+CD11b^+ macrophages using a 3-laser BD FACSCanto™ (BD Biosciences, Canada). Results were analyzed using FlowJo software (Tree Star Inc., USA).
as §1

Consider `C[C@@H]1C[C@H]2[C@@H]3CCC4=CC(=O)C=C[C@]4(C)[C@@]3(F)[C@@H](O)C[C@]2(C)[C@@]1(O)C(=O)CO` [dexamethasone, reference compound], for which the “Decrease in peritoneal lavage monocyte/macrophage counts compared to vehicle control” value in assay [1] is 38.1%.

As for “CCL2: C-C chemokine ligand type 2, chemotaxis stimulus for activated macrophages [reference compound]”, the “Average fold change in migrating cells (±SD) compared to untreated and unstimulated cells” value in assay [2] is 4.6±0.9 fold.
